# Laboratory results reported in US20250179028A1, “ACRYLAMIDE COMPOUNDS” (NRG THERAPEUTICS LTD, priority 2022, published 2025).
# Read-outs that look alike come from different tables or passages of the source.
# Assays:
# [1] = system: mPTP; assay: mPTP activity assay in isolated rat brain mitochondria; assay type: biochemical; settings: for mPTP Rat brain pIC50: isolated rat brain mitochondria
# Procedure: mPTP activity was measured in brain mitochondria freshly isolated from female Sprague Dawley (250 to 300 gram) rats. Anaesthetised rats were perfused in-situ with ˜40 ml cold Dulbecco's Phosphate Buffered Saline (DPBS), then brains dissected and transferred into 30 ml Isolation Buffer (225 mM mannitol, 75 mM sucrose, 1 mM EGTA, adjusted to pH 7.4 with 1 M NaOH). The brain was minced using tweezers and a scalpel into ˜5 mm pieces then transferred into a 50 ml Potterton Dounce homogenization tube on ice containing 10 ml ice-cold isolation buffer (as above with addition of Complete Protease inhibitor; 1 tablet per 50 ml buffer).
# Homogenisation was carried out using a […] pestle at 1800 rpm. The slurry was centrifuged at 2000 g for 10 min at 4° C., then the supernatant centrifuged at 12,000 g for 9 min. The pellet was resuspended with a dounce homogeniser in isolation buffer as above but with the addition of 0.02% digitonin, centrifuged at 12,000 g for 11 min and finally resuspended in 5 ml modified isolation buffer (as above but with EGTA reduced to 0.1 mM).
# Test compounds were prepared in 384 well polypropylene assay plates as described above for the liver mitochondria assay. A stock mitochondria/Fluo5N assay solution was prepared in 5.6 ml assay buffer (120 mM mannitol, 40 mM MOPS, 5 mM KH2PO4, 60 mM KCl, 10 mM pyruvate, 2 mM malate, 2 mM MgCl2, 20 μM ADP, 1.26 μM oligomycin A, adjusted to pH 7.4) supplemented with Fluo5N pentapotassium salt (2 μM) and 1 ml mitochondria suspension, then transferred (15 μl) into the assay plate containing test compounds and incubated for 10 min at RT. Assay plates were then transferred to a FLIPR Tetra plate reader (Molecular Devices). Dye fluorescence was then measured every 3 sec for a total of 10 min. After 12 sec, a 2.5 μl bolus of Ca2+ (75 μM) was added from a source plate containing 675 μM CaCl2) in FLIPR assay buffer. IC50 values for test compounds were calculated using the fluorescence value collected at the 10 min timepoint with % inhibition calculated using the DMSO control and cyclosporin A values at […].
# [2] = PBS and FaSSIF solubility; assay type: physicochemical; settings: kinetic from dmso stock
# Procedure, shortened: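 Solubility was measured from 10 mM DMSO stocks diluted into FaSSIF or PBS pH 7.4, in duplicate, then shaken at 1100 rpm for 2 hr at 25 °C. Filtrates were quantified by LC-MS/MS against an internal standard and a known-concentration standard.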
# [3] = Hepatocyte clearance assay, rat; assay type: in vitro ADME; settings: cryopreserved primary rat hepatocytes, average value from two experiments, read-out: Rat heps Clint
# Procedure, shortened: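 Cryopreserved rat or human hepatocytes, 0.5×10^6 viable cells/mL in L-15 medium, incubated with compound at 37 °C; samples to 120 min, duplicate. Parent loss by LC/MS/MS; t½ = 0.693/k from ln-linear regression, converted to CLint in μL/min/1×10^6 cells.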
# [4] = Hepatocyte clearance assay, human; assay type: in vitro ADME; settings: cryopreserved primary human hepatocytes, average value from two experiments, read-out: Human heps Clint
# Procedure: In vitro clearance studies were performed in primary rat and human hepatocytes (BiolVT). Vials of cryopreserved rat or human hepatocytes were thawed in a 37° C. water bath for 2 min. Cells were transferred into thawing medium (Williams' Medium E containing 30% Percoll, 1×GlutaMAX-1, 15 mM HEPES, 5% fetal bovine serum (FBS), 4 μg/ml insulin, 1 μM dexamethasone), centrifuged at 100 g for 10 min then resuspended in culture medium (Leibovitz's L-15 Medium) at a concentration of 0.5×10^6 viable cells/mL (number of viable cells assessed using AO/PI staining). Hepatocytes (198 μL) were transferred into wells of a 96-well non-coated plate and placed in a 37° C. incubator for 10 min. Test compound solutions were prepared from 10 mM stocks in DMSO, diluted to 100 μM in 50% (v/v in water) acetonitrile. Test compound samples (2 μl) were added to each well of hepatocytes and incubated at 37° C. Samples (25 μl) were collected at t=0, 15, 30, […] and 120 min, mixed with 6 volumes (150 μl) of acetonitrile containing internal standard (100 nM alprazolam, 200 nM caffeine and 100 nM tolbutamide), vortexed for 5 min and centrifuged for 45 min at 3220 g. An aliquot of supernatant (100 μL) was diluted with 100 μL ultra-pure water, and the mixture was used for LC/MS/MS analysis. All incubations were performed in duplicate. Peak areas were determined from extracted ion chromatograms. The slope value, k, was determined by linear regression of the natural logarithm of the remaining percentage of the parent drug vs. incubation time curve. The in vitro half-life (in vitro t½) was determined from the slope value: in vitro t½=0.693/k. Conversion of the in vitro t½ (in min) into the in vitro intrinsic clearance (in vitro CLint, in μL/min/1×10^6 cells) was done using the following equation (mean of duplicate determinations):
# [formula] • V=incubation volume (0.2 mL) • N=number of hepatocytes per well (0.1×10^6 cells).
# [5] = system: mPTP; assay: mPTP activity (Ca2+ retention) assay in isolated rat liver mitochondria; assay type: biochemical; settings: for mPTP Rat liver pIC50: isolated rat liver mitochondria, average value from multiple experiments (n ≥ 2)
# Procedure, shortened: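 Freshly isolated female Sprague Dawley rat liver mitochondria were energised with succinate and rotenone in pH 7.4 buffer with Fluo5N, then pre-incubated 10 min at RT with compound (30 μM to 1 nM final) before a 75 μM CaCl2 bolus. The IC50 used 10-min fluorescence, normalised to DMSO and 5 μM cyclosporin A.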
# [6] = Microsomal clearance assay; assay type: in vitro ADME; settings: rat liver microsomes; average value from two experiments
# Procedure: The microsomal stability of test compounds was evaluated using rat liver microsomes (BiolVT) with and without the cofactors nicotinamide adenine dinucleotide phosphate (NADPH) and undine-diphosphate-glucuronic acid (UDPGA). Reactions were performed in a final volume of 250 μl pre-warmed (37° C.) 100 mM phosphate buffer containing 5 mM MgCl2, 0.025 mg/ml alamethicin, and 0.5 mg/ml rat liver microsomes. NADPH and UDPGA were included at 1 mM and 2 mM respectively, where appropriate. Reactions were started with the addition of 1 μM (final concentration) test compound. Verapamil was used as the positive control. Solutions were incubated in a water bath at 37° C. and aliquots collected at 0.5, 5, 15, 30 and 60 min. Reactions were stopped by the addition of 5 volumes of cold acetonitrile with internal standards (200 nM caffeine and 100 nM tolbutamide). Samples were centrifuged at 3220 g for 40 min. An aliquot of supernatant was diluted 1:1 In ultra-pure H2O, then used for LC-MS/MS analysis. Peak areas were determined from extracted ion chromatograms. The slope value, k, was determined by linear regression of the natural logarithm of the remaining percentage of the parent drug vs. incubation time curve. The in vitro half-life (in vitro t½) was determined from the slope value: in vitro t½=0.693/k. Conversion of the in vitro t½ (min) into the in vitro intrinsic clearance (in vitro CLint, in μL/min/mg protein) was done using the following equation (mean of duplicate determinations): […]
# [7] = molecular target: CYP2D6 (Homo sapiens (Human), UniProt P10635); assay: Cytochrome P450 CYP2D6 inhibition in human liver microsomes; assay type: in vitro ADME; settings: probe dextromethorphan 2 µM (dextrorphan formation); 1 uM test compound, human liver microsomes; average value from two experiments; negative values = no effective inhibition
# Procedure, shortened: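 Human liver microsomes (0.2 mg/mL) with 2 μM dextromethorphan in 100 mM PBS, test compound at 1 μM or 0.1-30 μM, 15 min preincubation then NADPH-started reaction for 20 min at 37° C, in duplicate. Dextrorphan formation by UPLC-MS/MS; IC50 from % decrease versus uninhibited control.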
# [8] = fasted state simulated intestinal fluid (FaSSIF), fassif, Fasted state simulated intestinal fluid, 2 hr at 25° C., read-out: Solubility FaSSIF
# [9] = aqueous buffer, PBS pH 7.4, 2 hr at 25° C., read-out: Solubility PBS (pH 7.4)
# CYP2D6, sequence (P10635 whole entry): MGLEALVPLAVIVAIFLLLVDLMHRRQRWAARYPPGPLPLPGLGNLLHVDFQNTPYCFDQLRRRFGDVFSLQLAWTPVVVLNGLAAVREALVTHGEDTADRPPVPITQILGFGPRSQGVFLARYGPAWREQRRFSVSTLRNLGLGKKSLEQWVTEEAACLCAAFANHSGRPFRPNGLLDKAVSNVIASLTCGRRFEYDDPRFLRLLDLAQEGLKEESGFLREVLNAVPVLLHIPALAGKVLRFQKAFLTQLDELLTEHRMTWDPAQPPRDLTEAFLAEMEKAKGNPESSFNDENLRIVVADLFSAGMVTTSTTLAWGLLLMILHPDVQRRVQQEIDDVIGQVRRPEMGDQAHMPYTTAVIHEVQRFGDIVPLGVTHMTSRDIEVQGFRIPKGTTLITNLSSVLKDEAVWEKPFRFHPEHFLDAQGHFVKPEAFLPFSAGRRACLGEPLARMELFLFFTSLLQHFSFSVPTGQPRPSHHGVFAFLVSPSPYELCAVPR
Structure (SMILES),mPTP Rat brain pIC50 [1],"solubility at 2 h [2, 8]",hepatocyte CLint at 1 µM [3],hepatocyte CLint at 1 µM [4],mPTP Rat liver pIC50 [5],microsomal CLint at 1 µM [6],"solubility at 2 h [2, 9]","inhibition at 20 min, 1 µM [7]",activity in the rat brain mitochondria assay (in words) [1],activity in the rat liver mitochondria assay (in words) [5]
"CCO[C@H]1Cc2ccccc2[C@@H]1NC(=O)/C=C/c1ccc2c(C)n[nH]c2c1 [Example 69, (E)-N-((1S,2S)-2-ethoxy-2,3-dihydro-1H-inden-1-yl)-3-(3-methyl-1H-indazol-6-yl)acrylamide]",7.6,181 µM,73 µL/min/1e6 cells,17.9 µL/min/1e6 cells,7.7,–,–,–,–,–
"CC1Cc2ccccc2C1NC(=O)/C=C/c1ccc2c(c1)NC(=O)C2 (centres unmarked) [Example 21, (E)-N-(2-methyl-2,3-dihydro-1H-inden-1-yl)-3-(2-oxoindolin-6-yl)acrylamide]",–,–,–,–,6.1,38 µL/min/mg,26 µM,0.91%,–,–
"Cc1n[nH]c2cc(/C=C/C(=O)N[C@H]3c4ccccc4C[C@@H]3OCCF)ccc12 [Example 68, (E)-N-((1S,2S)-2-(2-fluoroethoxy)-2,3-dihydro-1H-inden-1-yl)-3-(3-methyl-1H-indazol-6-yl)acrylamide]",7.7,61.7 µM,34.9 µL/min/1e6 cells,12 µL/min/1e6 cells,7.8,–,–,–,–,–
"Cc1c(F)cccc1NC(=O)/C=C/c1ccc2nn[nH]c2c1 [Example 1, (E)-3-(1H-benzo[d][1,2,3]triazol-6-yl)-N-(3-fluoro-2-methylphenyl)acrylamide]",–,–,–,–,7.3,106 µL/min/mg,22.2 µM,-2.11%,–,–
"Cc1c(F)cccc1NC(=O)/C=C/c1cc(F)c2c(c1)NC(=O)C2 [Example 18, (E)-N-(3-fluoro-2-methylphenyl)-3-(4-fluoro-2-oxoindolin-6-yl)acrylamide]",–,–,–,–,6.0,23 µL/min/mg,1.11 µM,1.2%,–,–

# Second part, led by results:
mPTP Rat brain pIC50 [1],"solubility at 2 h [2, 8]",hepatocyte CLint at 1 µM [3],hepatocyte CLint at 1 µM [4],mPTP Rat liver pIC50 [5],microsomal CLint at 1 µM [6],"solubility at 2 h [2, 9]","inhibition at 20 min, 1 µM [7]",Structure (SMILES),activity in the rat brain mitochondria assay (in words) [1],activity in the rat liver mitochondria assay (in words) [5]
7.4,8 µM,3 µL/min/1e6 cells,3 µL/min/1e6 cells,7.7,–,–,–,"Cc1ncc(F)c(C)c1NC(=O)/C=C/c1ccc2c(C)n[nH]c2c1 [Example 113, (2E)-N-(5-fluoro-2,4-dimethylpyridin-3-yl)-3-(3-methyl-1H-indazol-6-yl)prop-2-enamide]",–,–
7.8,14 µM,13 µL/min/1e6 cells,6 µL/min/1e6 cells,7.6,–,–,–,"COc1cc(C)c(NC(=O)/C=C/c2cc3[nH]nc(Cl)c3cc2F)c(C)n1 [Example 96, (2E)-3-(3-chloro-5-fluoro-1H-indazol-6-yl)-N-(6-methoxy-2,4-dimethylpyridin-3-yl)prop-2-enamide]",–,–
6.7,–,307 µL/min/1e6 cells,45 µL/min/1e6 cells,7.1,–,–,–,"Cc1c(F)cncc1NC(=O)/C=C/c1ccc2c(C)n[nH]c2c1 [Example 110, (2E)-N-(5-fluoro-4-methylpyridin-3-yl)-3-(3-methyl-1H-indazol-6-yl)prop-2-enamide]",–,–
7.9,76 µM,5 µL/min/1e6 cells,3 µL/min/1e6 cells,7.6,–,–,–,"COc1cc(C)c(NC(=O)/C=C/c2cc3[nH]nc(C)c3cc2F)c(C)n1 [Example 95, (2E)-3-(5-fluoro-3-methyl-1H-indazol-6-yl)-N-(6-methoxy-2,4-dimethylpyridin-3-yl)prop-2-enamide]",–,–
8.3,–,48.1 µL/min/1e6 cells,11 µL/min/1e6 cells,7.9,–,–,–,"Cc1c(F)cccc1NC(=O)/C=C/c1ccc2c(C#N)n[nH]c2c1 [Example 51, (E)-3-(3-cyano-1H-indazol-6-yl)-N-(3-fluoro-2-methylphenyl)acrylamide]",highest activity,highest activity
